# Assays:
# [1] = target: T1, CXCR4 (Homo sapiens, UniProt P61073); test: Competition with radiolabeled SDF-1α binding to HEK-CXCR4 cells; parameters: host or cells: CEMx174 (174xCEM); settings: high concentrations (e.g., 100 μM) of peptide required, FIG. 1
# Procedure: (§1) Binding assays were performed with HEK-CCR5 or HEK CXCR4 in triplicate by adding unlabeled competitor (anti-coreceptor binding peptide or control chemokine) and radiolabeled chemokine, 0.2 ng/ml (^125I-MIP-1β or SDF-1α, specific activity 2000 Ci/mmol, NEN Life Science Products) to a cell suspension (4×10^5 cells in 200 μl) in RPMI 1640 supplemented with 1% bovine serum albumin and 25 mM HEPES pH 8.0 (binding medium). Cells were then incubated at 22° C. for 40 min with continuous rotation. After incubation cells were transferred to the tubes containing 800 μl of 10% sucrose in PBS and harvested by centrifugation. The supernatant was aspirated and the cell-associated radioactivity was measured using a 1272 Wallac gamma counter. […] After incubation cells were transferred to the tubes containing 800 μl of 10% sucrose in PBS and harvested by centrifugation, the supematant was aspirated and the cell-associated radioactivity was measured using a 1272 Wallac gamma counter. The data were analyzed by nonlinear regression using the computer program GraphPad Prizm 3.0.
# (§2) Considering that the 15K and 15D peptides were designed in part based on their structural similarity to corresponding chemokine fragments, the binding activity of these peptides for CCR5 and/or CXCR4 receptors, and corresponding anti-coreceptor binding activity against chemokines, was assessed.
# [2] = target: CCR5 (Homo sapiens, UniProt P51681); test: Competition with 125I-MIP-1β binding to HEK-CCR5 cells; parameters: expressed in transfected cells; host or cells: HEK-293; settings: high concentrations (e.g., 100 μM) of peptide required, FIG. 1
# Procedure: as §1, §2
# [3] = target: T1, CXCR4; test: Competition with 125I-SDF-1α binding to CEMx174 cells; parameters: host or cells: CEMx174 (174xCEM); settings: room temperature, 0.1% sodium azide, FIG. 7B, 7C
# Procedure: FIGS. 7A through 7C depicts the inhibition of chemokine receptor ligand binding by peptide pre-treatment. FIG. 7A. Effect of pre-treatment with peptides 15K and 15D on the binding of MIP-1β to SupT1/CCR5 cells; FIG. 7B. Effect of pre-treatment with peptides 15K and 1SD on the binding of SDF-1α to CEMx174 cells; and FIG. 7C. Effect of pre-treatment with 15K and control peptide 15GIG on the binding of SDF-1α to CEmx174 cells. Binding studies were performed as described in Materials and Methods.
# Binding assays were performed with HEK-CCR5 or HEK CXCR4 in triplicate by adding unlabeled competitor (anti-coreceptor binding peptide or control chemokine) and radiolabeled chemokine, 0.2 ng/ml (^125I-MIP-1β or SDF-1α, specific activity 2000 Ci/mmol, NEN Life Science Products) to a cell suspension (4×10^5 cells in 200 μl) in RPMI 1640 supplemented with 1% bovine serum albumin and 25 mM HEPES pH 8.0 (binding medium). Cells were then incubated at 22° C. for 40 min with continuous rotation. After incubation cells were transferred to the tubes containing 800 μl of 10% sucrose in PBS and harvested by centrifugation. The supernatant was aspirated and the cell-associated radioactivity was measured using a 1272 Wallac gamma counter. Binding assays were performed with the 174xCEM and Sup-T1 cells expressing CCR5 in duplicates by adding unlabeled competitor (peptide or control chemokine) and radiolabeled chemokine, 0.2 ng/ml (^125I-MIP-1β or ^125I-SDF-1α, specific activity 2000 Ci/mmol, NEN life Science Products) to 300 μl cell suspension (4×10^6 cells/ml) in RPMI 1640 supplemented with 1% bovine serum albumin, 0.1% sodium azide and 25 mM HEPES pH 8.0 (binding medium). Cells were then incubated at 22° C. for 30 min with continuous rotation. After incubation cells were transferred to the tubes containing 800 μl of 10% sucrose in PBS and harvested by centrifugation, the supematant was aspirated and the cell-associated radioactivity was measured using a 1272 Wallac gamma counter. The data were analyzed by nonlinear regression using the computer program GraphPad Prizm 3.0. […]
# [4] = target: T1, CXCR4; test: Ca2+ mobilization in THP-1 cells in response to SDF-1α (fura-2); format: cell-based; settings: peptide 500 μM preincubated, SDF-1α 100 ng/ml, FIG. 6
# Procedure: FIGS. 6A through 6D depict the effect of peptide pre-treatment on the mobilization of intracellular Ca^2+ in THP-1 cells in response to SDF-1α. Cells loaded with fura-2 were preincubated with peptide 15K (FIG. 6C), 15D (FIG. 6B) and 15CW (FIG. 6D) at a final concentration of 500 μM for 3 min prior to stimulation with SDF-1α (100 ng/ml).
# THP-1 cells (12×10^6/ml in RPMI 1640 containing 10% FSB) were loaded in the presence of 5 μM fura-2 AM (Molecular Probes, Eugene, Oreg.) at 22° C. for 30 min in the dark. Subsequently, cells were washed three times and resuspended (10^6 cells/ml) in the buffer containing 138 mM sodium chloride, 6 mM potassium chloride, 1 mM calcium chloride, 1 mM magnesium chloride, 10 mM HEPES, pH 7.4,5 mM glucose, and 0.1% bovine serum albumin. 1.93 ml of loaded cells was transferred into a quartz cuvette. 50 μl of a peptide stock solution (2×10^−2 M) was added to the cells, and after 3 min of incubation 20 μl of human SDF-1α (10 μg/ml, PeproTech) was added to a stirred cuvette. The measurements were performed using luminescence spectrophotometer LS50 B (Perkin-Elmer). Ca^2+ mobilization in the cells in response to SDF-1α was measured by analysis of the ratio of fluorescence emitted at 510 nm after sequential excitation at 340 and 380 nm.
# The increase of intracellular Ca^2+ concentration mediated by a chemokine receptor in response to a cognate chemokine is a reliable assay for measurement of chemokine agonist activity. The human monocytic cell line THP-1 expresses a high level of CXCR4 and responds well to SDF-1α stimulation (FIG. 6A), so these cells were used to determine whether peptides 15D and 15K could block the activation of CXCR4.
# T1 sequence (P61073 whole entry): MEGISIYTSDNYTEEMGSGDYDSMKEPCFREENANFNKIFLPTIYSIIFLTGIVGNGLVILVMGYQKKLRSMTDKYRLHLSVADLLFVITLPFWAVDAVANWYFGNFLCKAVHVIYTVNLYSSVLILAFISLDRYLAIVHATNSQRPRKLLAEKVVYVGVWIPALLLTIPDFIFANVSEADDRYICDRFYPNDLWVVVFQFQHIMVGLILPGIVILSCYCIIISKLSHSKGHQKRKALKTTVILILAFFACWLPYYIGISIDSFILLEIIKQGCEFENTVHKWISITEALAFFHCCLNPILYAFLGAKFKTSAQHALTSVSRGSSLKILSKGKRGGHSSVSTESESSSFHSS
# CCR5, sequence (P51681 whole entry): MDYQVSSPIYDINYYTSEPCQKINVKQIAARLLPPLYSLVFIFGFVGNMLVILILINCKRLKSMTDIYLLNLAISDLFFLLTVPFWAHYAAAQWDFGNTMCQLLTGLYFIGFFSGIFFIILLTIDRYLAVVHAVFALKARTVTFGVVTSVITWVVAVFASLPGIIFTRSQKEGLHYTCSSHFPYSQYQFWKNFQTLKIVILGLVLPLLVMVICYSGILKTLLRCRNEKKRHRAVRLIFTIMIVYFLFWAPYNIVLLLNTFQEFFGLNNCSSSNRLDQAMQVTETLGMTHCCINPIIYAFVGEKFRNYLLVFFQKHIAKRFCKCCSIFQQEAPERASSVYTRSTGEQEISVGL
Substance,inhibition of radiolabeled SDF-1α binding to cells expressing CXCR4 [1],inhibition of radiolabeled MIP-1β binding to cells expressing CCR5 [2],inhibition of SDF-1α binding to CXCR4 [3],inhibition of Ca2+ mobilization in response to SDF-1α [4]
I R K A H C N I S R A D W N D [Peptide 15D],significantly inhibit chemokine binding,significantly inhibit chemokine binding,competitively inhibited chemokine binding,completely inhibited
IRKAHCNISRAKWND [Peptide 15K],significantly inhibit chemokine binding,significantly inhibit chemokine binding,competitively inhibited chemokine binding,inhibited Ca^2+ mobilization although less efficiently than 15D
